Laboratory results reported in PubChem BioAssay AID1259407 (Chemical Carcinogenesis Research Information System (CCRIS), 2018).
The source made the active and inactive calls. How the calls were made is not given here.

System: CCRIS mutagenicity, Ames/micronucleus/aberration tests
Experiment: CCRIS mutagenicity studies
[1] = Test System: AMES SALMONELLA TYPHIMURIUM, Strain/Indicator: TA100, Metabolic Activation: NONE, Method: STANDARD PLATE
[2] = Test System: AMES SALMONELLA TYPHIMURIUM, Strain/Indicator: TA100, Metabolic Activation: NONE, Method: PREINCUBATION
[3] = Test System: AMES SALMONELLA TYPHIMURIUM, Strain/Indicator: TA98, Metabolic Activation: NONE, Method: STANDARD PLATE

C/C=C(\Cl)C1=C(Cl)C(=O)[C@]23C[C@H]2C(C)(C)O[C@]3(O)C1=O
mutagenic call (Test System: AMES SALMONELLA TYPHIMURIUM, Strain/Indicator: TA97, Metabolic Activation: NONE): inactive; negative | mutagenic call (Test System: AMES SALMONELLA TYPHIMURIUM, Strain/Indicator: TA98, Metabolic Activation: NONE): inactive; negative | mutagenic call (Test System: AMES SALMONELLA TYPHIMURIUM, Strain/Indicator: TA100, Metabolic Activation: NONE): active; positive | mutagenic call (Test System: AMES SALMONELLA TYPHIMURIUM, Strain/Indicator: TA102, Metabolic Activation: NONE): active; positive

CCOC(=O)C(C)(C)Oc1ccc(Cl)cc1
mutagenic call (End Point: In vitro micronucleus, Test System: Mouse lymphoma L5178Y cells, Metabolic Activation: None): active; positive | mutagenic call (Test System: AMES SALMONELLA TYPHIMURIUM, Strain/Indicator: TA100(FR1), Metabolic Activation: NONE, Method: STANDARD PLATE): inactive; negative | mutagenic call (Test System: AMES SALMONELLA TYPHIMURIUM, Strain/Indicator: TA100(FR1), Metabolic Activation: RAT, LIVER, S-9, PHENOBARBITAL AND 3-METHYLCHOLANTHRENE, Method: STANDARD PLATE): inactive; negative | mutagenic call [1]: inactive; negative | mutagenic call (Test System: AMES SALMONELLA TYPHIMURIUM, Strain/Indicator: TA100, Metabolic Activation: RAT, LIVER, S-9, PHENOBARBITAL AND 3-METHYLCHOLANTHRENE, Method: STANDARD PLATE): inactive; negative | mutagenic call (Test System: AMES SALMONELLA TYPHIMURIUM, Strain/Indicator: TA102, Metabolic Activation: RAT LIVER S-9, PHENOBARBITAL AND 5,6-BENZOFLAVONE, Method: STANDARD PLATE): inactive; negative | mutagenic call (Test System: AMES SALMONELLA TYPHIMURIUM, Strain/Indicator: TA2638, Metabolic Activation: RAT LIVER S-9, PHENOBARBITAL AND 5,6-BENZOFLAVONE, Method: STANDARD PLATE): inactive; negative | mutagenic call (Test System: CHINESE HAMSTER V-79, Strain/Indicator: V-79/6-THIOGUANINE, Metabolic Activation: NONE): inactive; negative | mutagenic call (Test System: CHINESE HAMSTER V-79, Strain/Indicator: V-79/6-THIOGUANINE, Metabolic Activation: RAT, LIVER, HEPATOCYTES): inactive; negative | mutagenic call (Test System: CHINESE HAMSTER V-79, Strain/Indicator: V-79/OUABAIN, Metabolic Activation: NONE): inactive; negative | mutagenic call (Test System: CHINESE HAMSTER V-79, Strain/Indicator: V-79/OUABAIN, Metabolic Activation: RAT, LIVER, HEPATOCYTES): inactive; negative | mutagenic call (Test System: E. COLI, Strain/Indicator: WP2 (PKM101), Metabolic Activation: RAT LIVER S-9, PHENOBARBITAL AND 5,6-BENZOFLAVONE, Method: STANDARD PLATE): inactive; negative | mutagenic call (Test System: E. COLI, Strain/Indicator: WP2 UVRA (PKM101), Metabolic Activation: RAT LIVER S-9, PHENOBARBITAL AND 5,6-BENZOFLAVONE, Method: STANDARD PLATE): inactive; negative | mutagenic call (Test System: Mouse lymphoma, Strain/Indicator: L5178Y (tk+/tk-)/Trifluorothymidine, Metabolic Activation: None, Method: Microtiter): inactive; negative

OC[C@H]1O[C@@H](n2cnc3c2ncn2ccnc32)[C@H](O)[C@@H]1O
mutagenic call [2]: inactive; negative

O=[N+]([O-])c1ccc2c(c1)c([N+](=O)[O-])cc1ccccc12
mutagenic call (Test System: AMES SALMONELLA TYPHIMURIUM, Strain/Indicator: TA98(1,8-DNP6), Metabolic Activation: NONE, Method: STANDARD PLATE): active; positive | mutagenic call (Test System: AMES SALMONELLA TYPHIMURIUM, Strain/Indicator: TA98(NR), Metabolic Activation: NONE, Method: STANDARD PLATE): active; positive | mutagenic call [3]: active; positive | mutagenic call [1]: active; positive | mutagenic call (Test System: AMES SALMONELLA TYPHIMURIUM, Strain/Indicator: YG1021, Metabolic Activation: NONE, Method: STANDARD PLATE): active; positive | mutagenic call (Test System: AMES SALMONELLA TYPHIMURIUM, Strain/Indicator: YG1024, Metabolic Activation: NONE, Method: STANDARD PLATE): active; positive | mutagenic call (Test System: AMES SALMONELLA TYPHIMURIUM, Strain/Indicator: YG1026, Metabolic Activation: NONE, Method: STANDARD PLATE): active; positive | mutagenic call (Test System: AMES SALMONELLA TYPHIMURIUM, Strain/Indicator: YG1029, Metabolic Activation: NONE, Method: STANDARD PLATE): active; positive

N#CCCC#N
mutagenic call (Test System: AMES SALMONELLA TYPHIMURIUM, Strain/Indicator: TA97, Metabolic Activation: HAMSTER, LIVER, S-9, AROCLOR 1254 (10 OR 30%), Method: PREINCUBATION): inactive; negative | mutagenic call (Test System: AMES SALMONELLA TYPHIMURIUM, Strain/Indicator: TA97, Metabolic Activation: NONE, Method: PREINCUBATION): inactive; negative | mutagenic call (Test System: AMES SALMONELLA TYPHIMURIUM, Strain/Indicator: TA97, Metabolic Activation: RAT, LIVER, S-9, AROCLOR 1254 (10 OR 30%), Method: PREINCUBATION): inactive; negative | mutagenic call (Test System: AMES SALMONELLA TYPHIMURIUM, Strain/Indicator: TA98, Metabolic Activation: HAMSTER, LIVER, S-9, AROCLOR 1254 (10 OR 30%), Method: PREINCUBATION): inactive; negative | mutagenic call (Test System: AMES SALMONELLA TYPHIMURIUM, Strain/Indicator: TA98, Metabolic Activation: NONE, Method: PREINCUBATION): inactive; negative | mutagenic call (Test System: AMES SALMONELLA TYPHIMURIUM, Strain/Indicator: TA98, Metabolic Activation: RAT, LIVER, S-9, AROCLOR 1254 (10 OR 30%), Method: PREINCUBATION): inactive; negative | mutagenic call (Test System: AMES SALMONELLA TYPHIMURIUM, Strain/Indicator: TA100, Metabolic Activation: HAMSTER, LIVER, S-9, AROCLOR 1254 (10 OR 30%), Method: PREINCUBATION): inactive; negative | mutagenic call [2]: inactive; negative | mutagenic call (Test System: AMES SALMONELLA TYPHIMURIUM, Strain/Indicator: TA100, Metabolic Activation: RAT, LIVER, S-9, AROCLOR 1254 (10 OR 30%), Method: PREINCUBATION): inactive; negative | mutagenic call (Test System: AMES SALMONELLA TYPHIMURIUM, Strain/Indicator: TA1535, Metabolic Activation: HAMSTER, LIVER, S-9, AROCLOR 1254 (10 OR 30%), Method: PREINCUBATION): inactive; negative | mutagenic call (Test System: AMES SALMONELLA TYPHIMURIUM, Strain/Indicator: TA1535, Metabolic Activation: NONE, Method: PREINCUBATION): inactive; negative | mutagenic call (Test System: AMES SALMONELLA TYPHIMURIUM, Strain/Indicator: TA1535, Metabolic Activation: RAT, LIVER, S-9, AROCLOR 1254 (10 OR 30%), Method: PREINCUBATION): inactive; negative

ONc1ccccc1-c1ccccc1
mutagenic call [3]: inactive; negative | mutagenic call [1]: active; positive
